Measured values as given in EP0855387A1, “2-ACYLAMINOBENZAMIDE DERIVATIVES AND PREVENTIVE AND REMEDY FOR DISEASES CAUSED BY THE SUPERMULTIPLICATION OF VASCULAR INTIMAL CELLS” (KISSEI PHARMACEUTICAL CO., LTD., priority 1995, dated 1997).

test system: Spontaneous hypertensive rat-derived vascular smooth muscle cells (VSMCs) in thoracic aorta; assay: Inhibition test on vascular smooth muscle cells proliferation (3H-thymidine incorporation); type: cell-based; conditions: 3H-thymidine incorporation into DNA, 24 hours incubation with compound; read-out: Concentration of 50% inhibitory activity (IC50)
Protocol: Thus, the compounds of the present invention have a very potent inhibitory effect on vascular smooth muscle cells proliferation.
Spontaneous hypertensive rat-derived vascular smooth muscle cells (VSMCs) in thoracic aorta were isolated by explant technique. The VSMCs were placed into 96 wells at 5000 cells/well and incubated in DMEM containing 10 % fetal calf serum at 37 °C in 95 % air and 5 % carbon dioxide for 3 days. After the incubation, the medium was replaced with DMEM containing each compound and ^3H-thymidine, and then the VSMCs were incubated. 24 hours later, the incorporation of ^3H-thymidine into DNA was determined and the radioactivity was defined as proliferation inhibitory activity of VSMCs. The activity of each compound was shown as a concentration which reduced the radioactivity of non-treated group by 50 % (IC50).

| SMILES | IC50 [µM] |
| --- | --- |
| CCCCNC(=O)c1ccccc1NC(=O)/C=C/c1ccc(OC)c(OC)c1 [Compound 19, (E)-N-Butyl-2-(3,4-dimethoxycinnamoylanino)benzamide] | 5 |
| COc1ccc(/C=C/C(=O)Nc2ccccc2C(=O)NCCCc2ccccc2)cc1OC [Compound 20, (E)-2-(3,4-Dimethoxycinnanoylamino)-N-(3-phenylpropyl)benzamide] | 7 |
| COc1cc(/C=C/C(=O)Nc2ccccc2C(=O)NCCO)cc(OC)c1OC [Compound 45, (E)-N-(2-Hydroxyethyl)-2-(3,4,5-trimethoxycinnnamoylamino)benzamide] | 34 |

same assay, conditions: Rattus norvegicus, VSMC; 3H-thymidine incorporation into DNA, 24 hours incubation with compound; read-out: Concentration of 50% inhibitory activity (IC50)

| SMILES | IC50 [µM] |
| --- | --- |
| CCOc1cccc(/C=C/C(=O)Nc2ccccc2C(N)=O)c1 [Compound 1, (E)-2-(3-Ethoxycinnamoylamino)benzamide] | 2 |
| CC(C)Oc1cccc(/C=C/C(=O)Nc2ccccc2C(N)=O)c1 [Compound 2, (E)-2-(3-Isopropoxycinnamoylamino)benzamide] | 14 |
| CCOC(=O)c1ccccc1/C=C/C(=O)Nc1ccccc1C(N)=O [Compound 3, (E)-2-(2-Ethoxycarbonylcinnamoylamino)benzamide] | 46 |
| COc1cccc(/C=C/C(=O)Nc2ccccc2C(N)=O)c1OC [Compound 5, (E)-2-(2,3-Dimethoxycinnamoylamino)benzamide] | 5 |
| NC(=O)c1ccccc1NC(=O)/C=C/c1cccc(OCc2ccccc2)c1 [Compound 6, (E)-2-(3-Benzyloxycinnamoylamino)benzamide] | 9 |
| CCCCOc1cccc(/C=C/C(=O)Nc2ccccc2C(N)=O)c1 [Compound 7, (E)-2-(3-Butoxycinnamoylamino)benzamide] | 86 |
| CCOc1ccc(/C=C/C(=O)Nc2ccccc2C(N)=O)cc1 [Compound 9, (E)-2-(4-Ethoxycinnamoylamino)benzamide] | 5 |
| COc1cccc(/C=C/C(=O)Nc2ccccc2C(N)=O)c1 [Compound 11, (E)-2-(3-Methoxycinnamoylamino)benzamide] | 9 |
| COc1ccc(/C=C/C(=O)Nc2ccccc2C(N)=O)c(OC)c1 [Compound 12, (E)-2-(2,4-Dimethoxycinnamoylamino)benzamide] | 3 |
| COc1ccc(OC)c(/C=C/C(=O)Nc2ccccc2C(N)=O)c1 [Compound 13, (E)-2-(2,5-Dimethoxycinnamoylamino)benzamide] | 3 |
| CCOc1cc(/C=C/C(=O)Nc2ccccc2C(N)=O)ccc1OC [Compound 16, (E)-2-(3-Ethoxy-4-methoxycinnamoylamino)benzamide] | 5 |
| CCOc1ccccc1/C=C/C(=O)Nc1ccccc1C(N)=O [Compound 21, (E)-2-(2-Ethoxycinnamoylamino)benzamide] | 30 |
| NC(=O)c1ccccc1NC(=O)/C=C/c1cccc(Cl)c1 [Compound 22, (E)-2-(3-Chlorocinnamoylamino)benzamide] | 30 |
| NC(=O)c1ccccc1NC(=O)/C=C/c1cccc(F)c1 [Compound 23, (E)-2-(3-Fluorocinnamoylamino)benzamide] | 39 |
| COc1ccccc1/C=C/C(=O)Nc1ccccc1C(N)=O [Compound 24, (E)-2-(2-Methoxycinnamoylamino)benzamide] | 8 |
| COc1cc(OC)c(OC)cc1/C=C/C(=O)Nc1ccccc1C(N)=O [Compound 25, (E)-2-(2,4,5-Trimethoxycinnamoylamino)benzamide] | 6 |
| COc1cc(/C=C/C(=O)Nc2ccccc2C(N)=O)cc(OC)c1OC [Compound 26, (E)-2-(3,4,5-Trimethoxycinnamoylamino)benzamide] | 7 |
| NC(=O)c1ccccc1NC(=O)/C=C/c1ccc2c(c1)OCO2 [Compound 30, (E)-2-(3,4-Methylenedioxycinnamoylamino)benzamide] | 9 |
| COc1ccc(/C=C/C(=O)Nc2ccccc2C(N)=O)c(OC)c1OC [Compound 31, (E)-2-(2,3,4-Trimethoxycinnamoylamino)benzamide] | 54 |
| COc1cc(/C=C/C(=O)Nc2ccccc2C(N)=O)cc(OC)c1 [Compound 32, (E)-2-(3,5-Dimethoxycinnamoylamino)benzamide] | 80 |
| CC(=O)c1ccc(/C=C/C(=O)Nc2ccccc2C(N)=O)cc1 [Compound 33, (E)-2-(4-Acetylcinnamoylamino)benzamide] | 78 |
| CCOc1c(OC)cc(/C=C/C(=O)Nc2ccccc2C(N)=O)cc1OC [Compound 35, (E)-2-(3,5-Dimethoxy-4-ethoxycinnamoylamino)benzamide] | 61 |
| COc1cc(OC)c(/C=C/C(=O)Nc2ccccc2C(N)=O)c(OC)c1 [Compound 37, (E)-2-(2,4,6-Trimethoxycinnamoylamino)benzamide] | 100 |

| SMILES | IC50 [µM] |
| --- | --- |
| NC(=O)c1ccccc1NC(=O)/C=C/c1ccc2c(c1)OCCO2 [Compound 38, (E)-2-(3,4-Ethylenedioxycinnamoylamino)benzamide] | 58 |
| COc1ccc(/C=C/C(=O)Nc2ccccc2C(=O)NCCN(C)C)cc1OC [Compound 39, (E)-2-(3,4-Dimethoxycinnamoylamino)-N-(2-dimethylaminoethyl)benzamide] | 55 |
| COc1ccc(/C=C/C(=O)Nc2ccccc2C(=O)NCCOCCO)cc1OC [Compound 42, (E)-2-(3,4-Dimethoxycinnamoylamino)-N-[2-(2-hydroxyethoxy)ethyl]benzamide] | 69 |
| COc1cc(/C=C/C(=O)Nc2ccccc2C(=O)NCCOCCO)cc(OC)c1OC [Compound 43, (E)-N-[2-(2-Hydroxyethoxy)ethyl]-2-(3,4,5-trimethoxycinnamoylamino)benzamide] | 44 |
| CCOc1ccc(/C=C/C(=O)Nc2ccccc2C(=O)NCCOCCO)cc1OC [Compound 44, (E)-2-(4-Ethoxy-3-methoxycinnamoylamino)-N-[2-(2-hydroxyethoxy)ethyl]benzamide] | 58 |
| COc1ccc(/C=C/C(=O)Nc2ccccc2C(=O)NCCO)cc1OC [Compound 46, (E)-2-(3,4-Dimethoxycinnamoylamino)-N-(2-hydroxyethyl)benzamide] | 58 |
| COc1ccc(/C=C/C(=O)Nc2ccccc2C(=O)NCCCCO)cc1OC [Compound 47, (E)-2-(3,4-Dimethoxycinnamoylamino)-N-(4-hydroxybutyl)benzamide] | 60 |
| COc1cc(/C=C/C(=O)Nc2ccccc2C(=O)NCCCCO)cc(OC)c1OC [Compound 48, (E)-N-(4-Hydroxybutyl)-2-(3,4,5-trimethoxycinnamoylamino)benzamide] | 42 |
| CCOc1cc(/C=C/C(=O)Nc2ccccc2C(=O)NCCO)ccc1OC [Compound 49, (E)-2-(3-Ethoxy-4-methoxycinnamoylamino)-N-(2-hydroxyethyl)benzamide] | 42 |
| COc1ccc(/C=C/C(=O)Nc2ccccc2C(=O)NCCN(CCO)CCO)cc1OC [Compound 50, (E)-N-[2-[Bis(2-hydroxyethyl)amino]ethyl]-2-(3,4-dimethoxycinnamoylamino)benzamide] | 71 |
| COc1cc(/C=C/C(=O)Nc2ccccc2C(=O)NCCN(CCO)CCO)cc(OC)c1OC [Compound 51, (E)-N-[2-[Bis(2-hydroxyethyl)amino]ethyl]-2-(3,4,5-trimethoxycinnamoylamino)benzamide] | 28 |
| COc1ccc(C=C(C#N)C(=O)Nc2ccccc2C(N)=O)cc1OC [Compound 52, 2-(α-Cyano-3,4-dimethoxycinnamoylamino)benzamide] | 117 |
| COc1ccc(C(C#N)=CC(=O)Nc2ccccc2C(N)=O)cc1OC [Compound 53, 2-(β-Cyano-3,4-dimethoxycinnamoylamino)benzamide] | 56 |
| CN(C)c1ccc(/C=C/C(=O)Nc2ccccc2C(N)=O)cc1 [Compound 55, (E)-2-(4-Dimethylaminocinnamoylamino)benzamide] | 65 |
| COc1ccc(/C=C/C(=O)Nc2cc(OC)c(OC)cc2C(=O)NCCO)cc1OC [Compound 56, (E)-4,5-Dimethoxy-2-(3,4-dimethoxycinnamoylamino)-N-(2-hydroxyethyl)benzamide] | 44 |
| COc1cc(NC(=O)/C=C/c2cc(OC)c(OC)c(OC)c2)c(C(N)=O)cc1OC [Compound 57, (E)-4,5-Dimethoxy-2-(3,4,5-trimethoxycinnamoylamino)benzamide] | 9 |
| CNC(=O)c1ccccc1NC(=O)/C=C/c1ccc(OC)c(OC)c1 [Compound 58, (E)-2-(3,4-Dimethoxycinnamoylamino)-N-methylbenzamide] | 15 |
| COc1ccc(/C=C/C(=O)Nc2ccccc2C(=O)NCC2CCCCC2)cc1OC [Compound 59, (E)-N-Cyclohexylmethyl-2-(3,4-dimethoxycinnamoylamino)benzamide] | 4 |
| COc1ccc(/C=C/C(=O)Nc2ccccc2C(=O)NO)cc1OC [Compound 60, (E)-2-(3,4-Dimethoxycinnamoylamino)-N-hydroxybenzamide] | 36 |
| CCOc1ccc(/C=C/C(=O)Nc2cc(OC)c(OC)cc2C(=O)NCCO)cc1OC [Compound 61, (E)-4,5-Dimethoxy-2-(4-ethoxy-3-methoxycinnamoylamino)-N-(2-hydroxyethyl)benzamide] | 45 |
| COc1ccc(NC(=O)/C=C/c2ccc(OC)c(OC)c2)c(C(=O)NCCO)c1 [Compound 62, (E)-2-(3,4-Dimethoxycinnamoylamino)-N-(2-hydroxyethyl)-5-methoxybenzamide] | 89 |
| COc1cc(/C=C/C(=O)Nc2ccc(O)cc2C(N)=O)cc(OC)c1OC [Compound 63, (E)-5-Hydroxy-2-(3,4,5-trimethoxycinnamoylamino)benzamide] | 46 |
| COc1cc(/C=C/C(=O)Nc2c(O)cccc2C(N)=O)cc(OC)c1OC [Compound 64, (E)-3-Hydroxy-2-(3,4,5-trimethoxycinnamoylamino)benzamide] | 96 |
